# From ChEMBL document CHEMBL1143650, “Synthesis of desthio prenylcysteine analogs: sulfur is important for biological activity” (Bioorg Med Chem Lett, 2005)
# Experiments:
# [1] = biological target: T1, Protein-S-isoprenylcysteine O-methyltransferase (Saccharomyces cerevisiae S288c, UniProt P32584); assay: Inhibitory concentration against isoprenyl-cysteine carboxyl methyltransferase
# T1 sequence (P32584 whole entry): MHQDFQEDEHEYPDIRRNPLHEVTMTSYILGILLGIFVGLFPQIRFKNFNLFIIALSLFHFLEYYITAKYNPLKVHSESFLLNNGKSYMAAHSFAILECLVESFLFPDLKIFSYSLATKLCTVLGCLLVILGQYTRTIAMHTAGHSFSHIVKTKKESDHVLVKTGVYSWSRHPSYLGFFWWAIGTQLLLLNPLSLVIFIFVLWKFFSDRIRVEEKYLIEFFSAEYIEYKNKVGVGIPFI
# [2] = biological target: T1, Protein-S-isoprenylcysteine O-methyltransferase; assay: Inhibitory concentration against isoprenyl-cysteine carboxyl methyltransferase by Casey method; Range 7 - 14 uM
Ki [1],IC50 [2],IC50 [1],Compound
13.2 µM,–,–,CC(=O)NC(C[S+]([O-])C/C=C(\C)CC/C=C(\C)CC/C=C(\C)CCC=C(C)C)C(=O)O (stereo not given)
17.1 µM,14 µM,44 µM,CC(=O)N[C@@H](CSC/C=C(\CC=C(C)C)CC/C=C(\C)CCC=C(C)C)C(=O)O
4.6 µM,–,–,CC(C)=CCC/C(C)=C/CC/C(C)=C/CSCC(=O)O [FARNESYLTHIOACETIC ACID]
